Reference: patent US20240092773A1, “DIHYDRO-CYCLOPENTA-ISOQUINOLINE SULFONAMIDES DERIVATIVES” (UCB Biopharma SRL, priority 2019, published 2024)

The compounds below were run against IgE-Tb binding to soluble IgE receptor FcεR1α (Y131A mutation) (Homo sapiens, UniProt P01854, N146Q/N252Q) (assay: In vitro FRET assay: inhibition of binding of IgE-Tb to receptor FcεR1α-Y131A-AF488). Settings: read-out: FRET IC50 range.
Sequence of IgE-Tb binding to soluble IgE receptor FcεR1α (Y131A mutation) (P01854 whole entry N146Q/N252Q, looked up): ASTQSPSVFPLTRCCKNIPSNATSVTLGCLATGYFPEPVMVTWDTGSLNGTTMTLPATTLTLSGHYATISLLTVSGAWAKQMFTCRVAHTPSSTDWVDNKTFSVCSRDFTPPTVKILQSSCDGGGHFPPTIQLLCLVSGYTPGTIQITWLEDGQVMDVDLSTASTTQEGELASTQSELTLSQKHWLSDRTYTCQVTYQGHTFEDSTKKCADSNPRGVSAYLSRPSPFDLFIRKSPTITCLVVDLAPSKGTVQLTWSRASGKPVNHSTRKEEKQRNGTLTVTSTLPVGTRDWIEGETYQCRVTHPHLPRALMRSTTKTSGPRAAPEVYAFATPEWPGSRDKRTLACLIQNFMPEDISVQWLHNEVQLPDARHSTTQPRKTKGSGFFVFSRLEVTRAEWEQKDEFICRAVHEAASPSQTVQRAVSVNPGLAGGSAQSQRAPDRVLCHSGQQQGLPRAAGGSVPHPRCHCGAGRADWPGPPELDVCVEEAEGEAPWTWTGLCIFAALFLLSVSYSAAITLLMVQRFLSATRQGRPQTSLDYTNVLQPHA
Work on `Cc1nnc(-c2ccc(NC3CCc4cc(S(=O)(=O)NCC(C)(C)F)c5cc(C6CC6)ncc5c43)cn2)o1` (centres unmarked) [Example 76, 3-cyclopropyl-N-(2-fluoro-2-methylpropyl)-9-[[6-(5-methyl-1,3,4-oxadiazol-2-yl)pyridin-3-yl]amino]-8,9-dihydro-7H-cyclopenta[h]isoquinoline-5-sulfonamide] yielded an IC50 of 100 to 2000 nM. `Cn1nnc(-c2ccc(NC3CCc4cc(S(=O)(=O)NCC(C)(C)F)c5cc(C6CC6)ncc5c43)cn2)n1` (centres unmarked) [Example 77, 3-cyclopropyl-N-(2-fluoro-2-methylpropyl)-9-[[6-(2-methyltetrazol-5-yl)pyridin-3-yl]amino]-8,9-dihydro-7H-cyclopenta[h]isoquinoline-5-sulfonamide] showed an IC50 of 50 to 100 nM. Compound `CC(C)CNS(=O)(=O)c1cc2c(c3cnc(C4CC4)cc13)C(Nc1c(Nc3cccnc3)c(=O)c1=O)CC2` (centres unmarked) [Example 78, 3-cyclopropyl-9-[[3,4-dioxo-2-(pyridin-3-ylamino)cyclobuten-1-yl]amino]-N-(2-methylpropyl)-8,9-dihydro-7H-cyclopenta[h]isoquinoline-5-sulfonamide] has an IC50 of 50 to 100 nM. In the case of `O=S(=O)(NC1CC(F)(F)C1)c1cc2c(c3cnc(C4CC4)cc13)CCC2n1cnnc1NCC1CC1` (centres unmarked) [Example 81, 3-cyclopropyl-7-[3-(cyclopropylmethylamino)-1,2,4-triazol-4-yl]-N-(3,3-difluorocyclobutyl)-8,9-dihydro-7H-cyclopenta[h]isoquinoline-5-sulfonamide], the IC50 is reported as 100 to 2000 nM. `O=S(=O)(NC1CC(F)C1)c1cc2c(c3cnc(C4CC4)cc13)CCC2n1cnnc1NCC1CC1` (centres unmarked) [Example 82, 3-cyclopropyl-7-[3-(cyclopropylmethylamino)-1,2,4-triazol-4-yl]-N-(3-fluorocyclobutyl)-8,9-dihydro-7H-cyclopenta[h]isoquinoline-5-sulfonamide] gave an IC50 of 100 to 2000 nM. In the case of `CC(C)CNS(=O)(=O)c1cc2c(c3cnc(C4CC4)cc13)CCC2NS(C)(=O)=O` (centres unmarked) [Example 83, 3-cyclopropyl-7-(methanesulfonamido)-N-(2-methylpropyl)-8,9-dihydro-7H-cyclopenta[h]isoquinoline-5-sulfonamide], the IC50 is reported as 100 to 2000 nM. Compound `CC(C)CNS(=O)(=O)c1cc2c(c3cnc(C4CC4)cc13)CCC2Nc1c(Nc2cccnc2)c(=O)c1=O` (centres unmarked) [Example 84, 3-cyclopropyl-7-[[3,4-dioxo-2-(pyridin-3-ylamino)cyclobuten-1-yl]amino]-N-(2-methylpropyl)-8,9-dihydro-7H-cyclopenta[h]isoquinoline-5-sulfonamide] has an IC50 of 10 to 50 nM. With `Cc1cc(-n2cnnc2NC2CCc3c2cc(S(=O)(=O)NCC(C)C)c2cc(C4CC4)ncc32)n(C)n1` (centres unmarked) [Example 88, 3-cyclopropyl-7-[[4-(2,5-dimethylpyrazol-3-yl)-1,2,4-triazol-3-yl]amino]-N-(2-methylpropyl)-8,9-dihydro-7H-cyclopenta[h]isoquinoline-5-sulfonamide] the IC50 was 100 to 2000 nM. `CC(C)CNS(=O)(=O)c1cc2c(c3cnc(C4CC4)cc13)CCC2Nc1nncn1-c1cccnc1` (centres unmarked) [Example 90, 3-cyclopropyl-N-(2-methylpropyl)-7-[(4-pyridin-3-yl-1,2,4-triazol-3-yl)amino]-8,9-dihydro-7H-cyclopenta[h]isoquinoline-5-sulfonamide] showed an IC50 of 100 to 2000 nM. `CC(C)CNS(=O)(=O)c1cc2c(c3cnc(C4CC4)cc13)CCC2n1cnnc1Nc1cccnc1` (centres unmarked) [Example 91, 3-cyclopropyl-N-(2-methylpropyl)-7-[3-(pyridin-3-ylamino)-1,2,4-triazol-4-yl]-8,9-dihydro-7H-cyclopenta[h]isoquinoline-5-sulfonamide] gave an IC50 of 10 to 50 nM. `CC(C)CNS(=O)(=O)c1cc2c(c3cnc(C4CC4)cc13)CCC2Nc1nc2ccccc2[nH]1` (centres unmarked) [Example 92, 7-(1H-benzimidazol-2-ylamino)-3-cyclopropyl-N-(2-methylpropyl)-8,9-dihydro-7H-cyclopenta[h]isoquinoline-5-sulfonamide] was tested, and the IC50 was 10 to 50 nM. Compound `CC(C)(F)CNS(=O)(=O)c1cc2c(c3cnc(C4CC4)cc13)C(Oc1cccnc1)CC2` (centres unmarked) [Example 93, 3-cyclopropyl-N-(2-fluoro-2-methylpropyl)-9-pyridin-3-yloxy-8,9-dihydro-7H-cyclopenta[h]isoquinoline-5-sulfonamide] has an IC50 of 100 to 2000 nM. `CC(C)(F)CNS(=O)(=O)c1cc2c(c3cnc(C4CC4)cc13)CCC2Oc1cccnc1` (centres unmarked) [Example 94, 3-cyclopropyl-N-(2-fluoro-2-methylpropyl)-7-pyridin-3-yloxy-8,9-dihydro-7H-cyclopenta[h]isoquinoline-5-sulfonamide] showed an IC50 of 100 to 2000 nM. `CC(C)CNS(=O)(=O)c1cc2c(c3cnc(C4CC4)cc13)CCC2NC(=S)Nc1cccnc1` (centres unmarked) [Example 95, 1-[3-cyclopropyl-5-(isobutylsulfamoyl)-8,9-dihydro-7H-cyclopenta[h]isoquinolin-7-yl]-3-(3-pyridyl)thiourea] gave an IC50 of 10 to 50 nM.
